The values below come from patent US20120220554A1, “Combretastatins for Prevention of Posterior Capsule Opacification” (OXIGENE, INC., priority 2010, published 2012).

In assay [1] the test system is BIE cells. The assay is described as follows: Ki67 immunofluorescence (cell proliferation) in BIE cells. The class given is cell-based, bovine. Here is the method:
BMI-immortalized bovine lens epithelial cells (BIE cell line, produced in Roy Quinlan's Laboratory, University of Durham, UK), were seeded onto 13 mm round coverslips in 6-well tissue culture plates in 10% fetal calf serum (FCS)-supplemented tissue culture medium (Sigma-Aldrich, UK) and kept at 37° C., 5% CO2 overnight. The next morning, they were exposed to 1 μM CA4P diluted in 10% FCS-supplemented medium for 30 min, after which the cells were returned to 10% FCS-supplemented medium. After 48 h, the prevalence of Ki67 positive cells was assessed by immunofluorescence.
BIE cells on coverslips were rinsed three times in PBS, followed by a single 20 min fixation in a 1:1 mix of methanol and acetone, three rinses in PBS/0.2 g/L BSA/0.2 g/L Na Azide and a single 20 min blocking step in 10% goat serum (Sigma-Aldrich, UK) diluted in PBS/BSA/NaAzide. The cells were then exposed to primary antibody (Ki-67: mouse monoclonal, 1/100, MIB-1 (DAKO, Denmark)) for 1 h at room temperature, after which they were rinsed three times in PBS/BSA/NaAzide and exposed to secondary antibody (goat anti-mouse IgG FITC-conjugated, 1/100; DAPI, 1/1000 (Sigma-Aldrich, UK)) for 1 h at room temperature in the dark. After three last rinses in PBS/BSA/NaAzide, the cells were plated onto microscope slides (VWR International, Belgium) and examined using a Zeiss LSM 510 Meta confocal microscope and its associated software. Ki-67 positive cells were counted out of a total of between 200 and 500 cells per coverslip, for two coverslips for each of three independent repeats, and expressed as the average percentage of Ki-67 positive cells out of the total number of cells counted (as determined by DAPI staining). Significant differences between control and treated cells were assessed by Chi^2-test.

Assay [2] concerns phospho-Erk in BIE cells. The assay is described as follows: Erk phosphorylation immunoblot in BIE cells. The class given is cell-based, bovine. Here is the method:
Phospho-Erk ½ levels were elevated immediately after the end of CA4P exposure in both control and treated cells and decreased 1 h after the end of CA4P exposure in both control and treated cells (FIG. 7). […] Therefore, it could be hypothesized that, in primary cells, a general stress response due to dissection will mask CA4P's effect on Erk phosphorylation. Phosphorylated p38 and JNK levels were not affected by CA4P treatment (data not shown).
(In general: A western blot detects proteins with antibodies after separation by electrophoresis.)

Setting [3] is: 48 h after 30 min exposure to 1 μM CA4P.

`COc1ccc(/C=C\c2cc(OC)c(OC)c(OC)c2)cc1OP(=O)(O)O` [CA4P, combretastatin A-4 phosphate]: in assay [1] (30 h after exposure (data not shown)), the nuclear morphology entry was “changes in nuclear morphology, as well as multinucleated cells were detected”. Besides, in assay [1] (setting [3]), the “Ki67 negative (%)” value worked out at 85.1 ± 5.7% and the “Ki67 positive (%)” value was determined as 14.9 ± 5.7%. Besides, the cell loss entry in assay [1] (by 48 h after exposure) is “cell loss is extensive”. In assay [2] (1 h after the end of CA4P exposure), the phospho-Erk levels entry is “returned to control levels”. Moreover, in assay [2] (immediately after the end of CA4P exposure), the phospho-Erk levels result is listed as “elevated”.
